pIC50: −log10 of the molar value.
Assays:
[1] = system: LNCaP cells; assay: In vitro cytotoxicity, MTT staining; type: cell-based; details: Homo sapiens
Method: (§1) The human prostate cancer cell lines PC-3, LNCaP and DU-145 and the breast cancer cell lines MCF-7 and MDA-231 were purchased from ATCC (Manassas, Va.). PC-3, LNCaP, and DU-145 cells were cultured in F12K, RPMI, and EMEM, respectively. MCF-7 and MDA-231 cells were cultured in RPMI. All culture media were supplemented with 10% FBS and 1% penicillin/streptomycin antibiotics (ATCC). All the cells were maintained at 37° C. in incubators with 5% CO2 and humidified atmosphere.
(§2) The cytotoxicity of the liposomal IPA-3 as well as the free IPA-3 was determined in three prostate cancer cell lines (PC-3, LNCaP, and DU-145) using the MTT assay (Twentyman, et al., Br J Cancer. 1987; 56: 279-85). Free IPA-3 and SSL-IPA-3 were used for comparison. Cells were seeded in 48-well tissue culture plates at 5×10^4 cells/ml and incubated at 37° C. in a 5% CO2 incubator for 24 hr. This time was sufficient for the cells to attach and resume their growth. Liposomes were diluted in the different culture media to their final concentrations and experiments were performed in triplicates. […] Plates were shaken for 15 min and absorbance was read at 590 nm using a Spectra Max M2 plate reader (BMG Lab Technologies, Inc., Durham, NC). […]

[2] = system: PC-3 cells; assay: In vitro cytotoxicity, MTT staining; type: cell-based; details: Homo sapiens
Method: as §1, §2

[3] = system: DU-145 cells; assay: In vitro cytotoxicity, MTT staining; type: cell-based, human
Method: as §1, §2

[4] = system: MCF-7 cells; assay: In vitro cytotoxicity, MTT staining; type: cell-based; details: Homo sapiens, MCF7
[5] = system: MDA-231 cells; assay: In vitro cytotoxicity, MTT staining; type: cell-based; details: Homo sapiens, MDA-MB-231
[6] = system: human prostate cancer cell lines PC-3, LNCaP and DU-145; assay: In vitro cytotoxicity, MTT staining, across the prostate cancer cell lines; type: cell-based
Method: as §1, §2

[7] = system: PC-3 cells; assay: Cell death by annexin V and PI staining, flow cytometry; type: cell-based, human; details: 48 hr, free IPA-3 20-30 μM
[8] = system: PC-3 cell tumor xenografts; assay: In vivo prostate tumor xenograft growth; set-up: species or system athymic nude mice; details: 5 mg/kg i.p., 2 days/week, from day 7 to day 25
Method: (§3) All animal procedures listed in this article were performed as per the protocol approved by the Institutional Animal Care and Use Committee at the Charlie Norwood Veterans Affairs Medical Center, Augusta, GA (protocol #12-06-049). PC-3 cells were grown to 60-70% confluent in 225-ml flasks. Next, cells were collected and suspended in sterile normal saline. Cell suspension (3 million cells//mouse) was injected subcutaneously (SC) in 6-8-weeks-old male athymic nude mice (Harlan, Indianapolis, IN) (n=5-6). All the treatments (DMSO, empty liposomes, free IPA-3 (5 mg/Kg), and SSL-IPA-3 (5 mg/kg) were started on day 7 from tumor implantation, and were administered two times a week (i.p.). Tumor diameters were measured with digital calipers on day 7, 14, 21, and 25, and the tumor volume in mm^3 were calculated by the modified ellipsoidal formula (Tumor volume=½[length×width^2]). Average size of the tumors prior to the treatment with free IPA-3 and SSL-IPA-3 were 42 mm^3. Mice were sacrificed on day 25 and tumors were dissected, weighed, and snap-frozen for further immunohistochemistry analysis.

[9] = Body weight of tumor bearing mice; type: in vivo, athymic nude mice; details: 5 mg/kg i.p., 2 days/week; after 25 days
Method: as §3

[10] = system: PC-3 cell prostate tumor xenografts; assay: TUNEL assay of apoptosis in tumor xenograft sections; type: in vivo, athymic nude mice; details: 5 mg/kg i.p., 2 days/week; day 25
Method: as §3
The TUNEL assay for in situ detection of apoptosis was performed using the ApopTag® Fluorescein in situ Apoptosis detection kit (Millipore, MA) as described previously8. Frozen sections taken from prostate tumor xenografts were fixed in 2% paraformaldehyde at 4° C. for 30 min. […]

[11] = system: PC-3 cell tumor xenografts; details: daily administration (Al-Azayzih et al. 2015); cited from earlier work
[12] = free form (Rudolph et al. 2015); cited from earlier work

SMILES: Oc1ccc2ccccc2c1SSc1c(O)ccc2ccccc12 [IPA-3, 1,1′-Dithiodi-2-naphthtol]
- pIC50 [1]: 5.00
- pIC50 [2]: 4.92
- susceptibility of DU-145 cells compared to PC-3 and LNCaP cells [3]: less susceptible
- pIC50 ([3]; Homo sapiens, DU-145, DU-145): ~4.49
- pIC50 [4]: 4.60
- pIC50 [5]: 5.10
- pIC50 ([6]; Homo sapiens, depending on the cell line, MTT staining): 4.46 to 5.00
- effect on MTT staining ([6]; concentrations of 5-30 μM, 24, 48, 72 hrs): concentration-and time-dependent decreases in MTT staining
- percent of cells staining positive for annexin V alone [7]: significantly increased
- percent of cells staining positive for both annexin V and PI [7]: significantly increased
- PC-3 cell tumor xenograft growth [8]: did not have a significant effect
- effect on body weight of mice [9]: no significant effect
- number of apoptotic (TUNEL positive) cells per field compared to control groups [10]: significant increases
- prostate tumor xenograft growth [11]: reduced prostate tumor xenograft growth
- half-life in vivo [12]: very short half-life

From patent US11969396B2, “IPA-3-loaded liposomes and methods of use thereof” (University of Georgia Research Foundation, Inc., priority 2016, dated 2024)
